Laboratory results: patent publication US20080008660A1, “Antimicrobially active compounds for treating bad breath” (Symrise GmbH & Co. KG, priority 2006, published 2008)
≈ marks a conversion by molar mass, not a printed value.

What was measured:
Type in all cases: cell-based
[1] = test system: fresh morning saliva; experiment: In-vitro test for reducing bad breath (liquid medium inoculated with fresh morning saliva, smelt by a test panel); settings: for formation of bad breath / smell after incubation: 0.1%
Method: This test is based on the work of Goldberg and Rosenberg (Production of Oral Malodor in an in vitro System, S. Goldberg and M. Rosenberg, pp. 143-150, in: Bad Breath—A multidisciplinary Approach, Eds: D. van Steenberghe, M. Rosenberg, Leuven University Press, 1996) and was adapted for the purposes of better reproducibility.
A sterile liquid medium that is inoculated with fresh morning saliva is incubated for a few days at 37° C. and then smelt by a test panel.
An intensive typical smell of bad breath had formed. Non-inoculated controls only have a weak to moderate smell of bad breath.
Triclosan® in a concentration of 0.05% was added as control for the tests.
The minimum effective concentrations of various compounds of the Formula 1 or of the Formula 1A at which no smell could be detected are shown hereinafter: […]

[2] = test system: Candida albicans; experiment: Effect against germs not connected with bad breath; settings: 1,000 ppm
[3] = test system: Aspergillus niger; experiment: Effect against germs not connected with bad breath; settings: 1,000 ppm
[4] = test system: Escherichia coli; experiment: Effect against germs not connected with bad breath; settings: 1,000 ppm
[5] = test system: Fusobacterium nucleatum; experiment: Minimal inhibiting concentration, series dilution test
Method: (§1) The minimal inhibiting concentration (MIC) was determined by way of example for 2-(benzoylamino) benzoic acid (Compound 27) in a series dilution test against various germs found in the mouth.

[6] = test system: Prevotella intermedia; experiment: as above
Method: as §1

[7] = test system: Staphylococcus aureus; experiment: as above; settings: bactericide
Method: as §1

[8] = test system: Veillonella parvula; experiment: as above; settings: bactericide
Method: as §1

[9] = medium inoculated with fresh morning saliva, incubated a few days at 37° C., test panel

| SMILES | minimum effective concentration at which no smell could be detected [1, 9] [%] | also measured |
| --- | --- | --- |
| O=C(/C=C/c1ccc(O)c(O)c1)Nc1ccccc1C(=O)O [Compound 2, 2-{[(2E)-3-(3,4-dihydroxyphenyl)prop-2-enoyl]amino}benzoic acid] | 0.005 | – |
| O=C(/C=C/c1ccc(O)c(O)c1)Nc1ccc(O)cc1C(=O)O [Compound 3, 5-hydroxy-2-{[(2E)-3-(3,4-dihydroxyphenyl)prop-2-enoyl]amino}benzoic acid] | 0.0025 | – |
| COc1cc(/C=C/C(=O)Nc2ccc(O)cc2C(=O)O)ccc1O [Compound 4, 5-hydroxy-2-{[(2E)-3-(4-hydroxy-3-methoxyphenyl)prop-2-enoyl]amino}benzoic acid] | 0.01 | minimum effective concentration at which no smell could be detected ([1]; same value given in ppm): (=100 ppm) |
| O=C(/C=C/c1ccc(O)cc1)Nc1ccc(O)cc1C(=O)O [Compound 7, 5-hydroxy-2-{[(2E)-3-(4-hydroxyphenyl)prop-2-enoyl]amino}benzoic acid] | 0.005 | minimum effective concentration at which no smell could be detected ([1]; same value given in ppm): (=50 ppm) |
| O=C(CCc1ccc(O)cc1)Nc1ccccc1C(=O)O [Compound 8, 2-{[3-(4-hydroxyphenyl)propanoyl]amino}benzoic acid] | 0.005 | – |
| COc1cc(/C=C/C(=O)Nc2ccccc2C(=O)O)ccc1O [Compound 9, 2-{[(2E)-3-(4-hydroxy-3-methoxyphenyl)prop-2-enoyl]amino}benzoic acid] | 0.005 | – |
| O=C(/C=C/c1ccc(O)cc1)Nc1ccccc1C(=O)O [Compound 10, 2-{[(2E)-3-(4-hydroxyphenyl)prop-2-enoyl]amino}benzoic acid] | 0.0025 | minimum effective concentration at which no smell could be detected ([1]; same value given in ppm): (=25 ppm); effect against the germ [2]: did not have any effect; effect against the germ [3]: did not have any effect; effect against the germ [4]: did not have any effect |
| O=C(/C=C/c1ccccc1)Nc1ccc(O)cc1C(=O)O [Compound 12, 5-Hydroxy-2-{[(2E)-3-phenylprop-2-enoyl]amino}benzoic acid] | 0.0025 | – |
| COc1ccc(/C=C/C(=O)Nc2ccc(O)cc2C(=O)O)cc1OC [Compound 13, 5-Hydroxy-2-{[(2E)-3-(3,4-dimethoxyphenyl)prop-2-enoyl]amino}benzoic acid] | 0.01 | – |
| O=C(Nc1ccccc1C(=O)O)c1ccc(O)c(O)c1 [Compound 20, 2-[(3,4-dihydroxybenzoyl)amino]benzoic acid] | 0.005 | – |
| COc1ccc(C(=O)Nc2ccccc2C(=O)O)cc1O [Compound 23, 2-[(3-hydroxy-4-methoxybenzoyl)amino]benzoic acid] | 0.0025 | – |
| O=C(Nc1ccccc1C(=O)O)c1ccc(O)cc1 [Compound 24, 2-[(4-hydroxybenzoyl)amino]benzoic acid] | 0.001 | – |
| COc1cc(C(=O)Nc2ccccc2C(=O)O)ccc1O [Compound 25, 2-[(4-hydroxy-3-methoxybenzoyl)amino]benzoic acid] | 0.001 | – |
| O=C(Nc1ccccc1C(=O)O)c1ccc(O)cc1O [Compound 26, 2-[(2,4-dihydroxybenzoyl)amino]benzoic acid] | 0.0025 | – |
| O=C(Nc1ccccc1C(=O)O)c1ccccc1 [Compound 27, 2-(benzoylamino)-benzoic acid] | 0.0025 | smell after incubation ([1]; 0.001 wt. %): a non unpleasant smell could be detected, which did not bear any resemblance to bad breath; smell after incubation ([1]; 0.0025 wt. %): no smell; MIC ([5]; bactericide): 1000 µg/mL (≈ 4150 µM); MIC ([5]; bacteriostatic): 500 µg/mL (≈ 2070 µM); MIC ([6]; bactericide): 1000 µg/mL (≈ 4150 µM); MIC ([6]; bacteriostatic): 500 µg/mL (≈ 2070 µM); MIC [7]: 500 µg/mL (≈ 2070 µM); MIC [8]: 250 µg/mL (≈ 1040 µM) |
| O=C(Nc1ccccc1C(=O)O)c1cccc(O)c1 [Compound 28, 2-[(3-hydroxybenozyl)amino]benzoic acid] | 0.0005 | minimum effective concentration at which no smell could be detected ([1]; same value given in ppm): (=5 ppm) |
| O=C(Nc1ccccc1C(=O)O)c1ccccc1O [Compound 29, 2-[(2-hydroxybenzoyl)amino]benzoic acid] | 0.0025 | – |
| O=C(Nc1cc(O)ccc1C(=O)O)c1ccc(O)cc1 [Compound 75, 4-hydroxy-2-[(4-hydroxybenzoyl]amino}benzoic acid] | 0.01 | – |
| O=C(Nc1ccccc1)c1ccccc1O [Compound 100, Salicylanilide] | 0.0025 | – |
| COc1ccc(/C=C/C(=O)Nc2ccccc2C(=O)O)cc1 [Compound 101, 2-{[(2E)-3-(4-methoxyphenyl)prop-2-enoyl]amino}benzoic acid] | 0.0025 | – |
| O=C(/C=C/c1ccccc1)Nc1ccccc1C(=O)O [Compound 102, 2-{[(2E)-3-phenylprop-2-enoyl]amino}benzoic acid] | 0.001 | minimum effective concentration at which no smell could be detected ([1]; same value given in ppm): (=10 ppm) |
| Oc1cc(Cl)ccc1Oc1ccc(Cl)cc1Cl [Triclosan, reference compound] | – | smell after incubation ([1]; 0.05%, control): the same smell as the non-inoculated flasks |
| C=CCc1ccc(O)c(OC)c1 [eugenol, reference compound] | – | formation of bad breath / smell after incubation [1]: suppressed the formation of bad breath |
| Cc1ccc(C(C)C)c(O)c1 [thymol, reference compound] | – | formation of bad breath / smell after incubation [1]: suppressed the formation of bad breath |
